This is an account of results in patent US5304474A, “Hydrophobic peptide esters and amides” (Board of Regents, The University of Texas System, priority 1991, dated 1994).

Entries after “also recorded” stand apart in the source; their conditions may differ. Peptide text beside a SMILES is read from it. * marks the point of attachment. βNA = c1ccc2cc(N*)ccc2c1

Data set [1] deals with natural killer cells (NK). The data set is described as follows: NK function: lysis of K562 target cells (51Cr release) after preincubation of lymphocytes with compound. The note with it: for NK toxicity / effect on NK function, in words: lymphocytes exposed 15 minutes at room temperature (FIG. 4, FIG. 5); for NK Toxicity (LD50): concentration which results in 50% loss of human NK function, PBL 15 minutes at 22° C.; for NK Function % Specific Cytotoxicity: Nil 50.8 (Table 2); for prevention of Leu-OMe ablation of NK activity / permanent effect on NK function: PBM; for prevention of Leu-OMe ablation of NK activity: 5 mM Leu-OMe with lysosomal inhibitor (FIG. 1); for permanent effect on NK function: agent alone, washed, 18 hours culture, E:T 40:1 (FIG. 1); for effect of unesterified dipeptides on NK cell survival or lytic activity: up to 5×10^-3 M.
Experimental: PBM were separated from heparinized venous blood of healthy donors by centrifugation over sodium diatrizoate-Ficoll gradients (Isolymph, Gallard-Schlesinger Chemical Mfg. Corp., Carle Place, N.Y.).
All cell exposures to the amino acids, dipeptides or their methyl esters were carried out by suspending cells in Dulbecco's phosphate buffered saline (PBS) and incubating them at room temperature with the reagent at the indicated concentration and time interval.
Percent of control cytotoxicity was calculated using the formula: [formula]

Data set [2] concerns [^3 H]Leu-Leu-OMe uptake by PBL (facilitated transport). The data set can be described thus: Competitive inhibition of [3H]Leu-Leu-OMe uptake. Format: cell-based, human. The note with it: for inhibition at 250 µM: Homo sapiens, unlabeled compound 250 microM. On the procedure:
Human peripheral blood lymphocytes (PBL) were incubated in the presence of [^3 H]labeled Leu-Leu-OMe at 22° C. for varying lengths of time. The incubation mixture was then centrifuged through silicone oil to separate the cells from any unbound or non-internalized [^3 HLeu-Leu-OMe. […] At 37° C., levels of [^3 H]Leu-Leu-OMe accumulation by PBL were increased above those seen at 22° C. (see Table 4).

Setting [3] is: [3H]Leu-Leu-OMe 10 microM (Table 6).
Setting [4] is: 250 micro-M, Nil 40.8 (Table 16).
Where [5] appears, read: [3H]Leu-Leu-OMe 10 microM (Table 5).

Turning to `COC(=O)[C@H](CC(C)C)NC(=O)[C@H](C)N` [Ala-Leu-OMe] (H-Ala-Leu-OMe), in data set [1], the “NK toxicity / effect on NK function, in words” value (“NK toxicity / effect” for short) is reported as “had no NK inhibitory effects”.
For `COC(=O)[C@H](CC(C)C)NC(=O)[C@@H](N)CC(=O)O` [Asp-Leu-OMe] (H-Asp-Leu-OMe), the “competitive inhibition of [3H]Leu-Leu-OMe uptake, in words” value (shortened to “competitive inhibition”) in data set [2] is on record as “not competitively inhibited”. For the same compound, in data set [1], the “NK toxicity / effect” value is “exhibit no NK toxicity”.
As for `COC(=O)[C@H](Cc1ccccc1)NC(=O)[C@@H](N)CC(=O)O` [Asp-Phe-OMe, aspartyl phenylalanine methyl ester] (H-Asp-Phe-OMe), the inhibition at 250 µM in data set [2] (setting [3]) is 8%. Besides, the “NK Toxicity (LD50)” value in data set [1] was > 250 micro-M. In addition, the “NK toxicity / effect” value in data set [1] is “no observed NK inhibitory effects”. Also, the “NK Function % Specific Cytotoxicity” value in data set [1] (preincubation 100 micromolar) is 54.2%; in data set [1] (preincubation 250 micromolar), 45.7%; in data set [1] (preincubation 500 micromolar) it was 45.7%; in data set [1] (preincubation 1000 micromolar), 46.9%.
For `COC(=O)[C@H](CC(C)C)NC(=O)CN` [Gly-Leu-OMe], in data set [1], the “NK toxicity / effect” value is “greatly reduced NK toxicity”.
Consider `NCC(=O)N[C@@H](Cc1ccccc1)C(N)=O` [Gly-Phe-NH2] (H-Gly-Phe-NH2), for which the “NK Function % Specific Lysis K562” value in data set [1] (setting [4]) was 43.9%. The “NK toxicity / effect” value in data set [1] is given as “has no apparent NK toxic effects”.
Consider `COC(=O)[C@H](Cc1ccccc1)NC(=O)CN` [Gly-Phe-OMe] (H-Gly-Phe-OMe), for which the “NK Function % Specific Lysis K562” value in data set [1] (setting [4]) is reported as 34.5%; in data set [1] (500 micro-M, Nil 40.8 (Table 16)), 10.1%. Besides, the “NK toxicity / effect” value in data set [1] is reported as “a much less potent NK toxin than is Leu-Leu-OMe”.
On to `NCC(=O)N[C@@H](Cc1ccccc1)C(=O)Nc1ccc2ccccc2c1` [Gly-Phe-beta-naphthylamide, glycyl L-phenylalanyl beta napthylamide] (H-Gly-Phe-βNA), for which the “competitive inhibition” value in data set [2] is “competitively inhibits [^3 H]Leu-Leu-OMe uptake by lymphocytes”. Also, the “NK Function % Specific Lysis K562” value was 52.5% in data set [1] (1 micro-M, Nil 40.8 (Table 16)); 1.2% in data set [1] (5 micro-M, Nil 40.8 (Table 16)); 0.6% in data set [1] (20 micro-M, Nil 40.8 (Table 16)). The “NK toxicity / effect” value in data set [1] is listed as “a very potent NK toxin”.
Turning to `CC[C@H](C)[C@H](N)C(=O)OC` [Ile-OMe, reference compound], in data set [1], the “prevention of Leu-OMe ablation of NK activity” value was “largely prevented” and the “permanent effect on NK function” value is “neither chloroquine, NH4 Cl, nor Ile-OMe had any substantial permanent effect on NK function”.
Consider `COC(=O)[C@H](CCCNC(=N)N)NC(=O)[C@@H](N)CC(C)C` [Leu-Arg-OMe], for which, in data set [1], the “NK toxicity / effect” value is listed as “no observed NK inhibitory effects”.
`COC(=O)CNC(=O)[C@@H](N)CC(C)C` [Leu-Gly-OMe] (H-Leu-Gly-OMe): the “NK toxicity / effect” value in data set [1] was “greatly reduced NK toxicity”.
Turning to `COC(=O)[C@H](CC(C)C)NC(=O)[C@H](CC(C)C)NC(=O)[C@@H](N)CC(C)C` [Leu-Leu-Leu-OMe] (H-Leu-Leu-Leu-OMe), the “competitive inhibition” value in data set [2] is reported as “do not competitively inhibit PBL uptake of L-Leu-L-Leu-OMe”. The inhibition at 250 µM in data set [2] (setting [5]) stood at 6%. Further, the “concentration required for effect equivalent to Leu-Leu-OMe” value in data set [1] (MP-depleted lymphocytes (FIG. 4)) was found to be 5 fold. For the same compound, the “NK toxicity / effect” value in data set [1] is “caused dose-dependent loss of NK function”.
Turning to `CC(C)C[C@H](NC(=O)[C@@H](N)CC(C)C)C(N)=O` [Leu-Leu-NH2], the “competitive inhibition” value in data set [2] is listed as “do not competitively inhibit PBL uptake of L-Leu-L-Leu-OMe”. The inhibition at 250 µM in data set [2] (setting [5]) was 8%. For the same compound, the “NK Function % Specific Lysis K562” value in data set [1] (1.00 micro-M, Nil 66 (Table 14)) was found to be 66%; in data set [1] (250.00 micro-M, Nil 66 (Table 14)), 71%. Moreover, in data set [1], the “NK toxicity / effect” value is “no discernible toxicity for NK Cells”.
Regarding `CC(C)C[C@H](NC(=O)[C@@H](N)CC(C)C)C(=O)OCc1ccccc1` [Leu-Leu-OBenzyl, L-leucyl-L-leucyl benzyl ester], in data set [2], the “competitive inhibition” value is recorded as “competitively inhibited”. Further, the inhibition at 250 µM in data set [2] (setting [5]) turned out to be 87%. Further, in data set [1], the “potency relative to Leu-Leu-OMe in depleting human PBL of cytotoxic lymphocytes” value is recorded as “greater than twofold more potent than Leu-Leu-OMe”. The “NK Function % Specific Lysis K562” value in data set [1] (6.25 micro-M during preincubation, Nil 66 (Table 14)) is 62%; in data set [1] (12.50 micro-M, Nil 66 (Table 14)), < 1%; in data set [1] (25.00 micro-M, Nil 66 (Table 14)) it was 1%. Besides, the “NK toxicity / effect” value in data set [1] was “ablates human NK activity”.
In the case of `CC(C)C[C@H](N)C(=O)N[C@@H](Cc1ccccc1)C(=O)O` [Leu-Phe, L-leucyl L-phenylalanine, reference compound] (H-Leu-Phe-OH), the “effect of unesterified dipeptides on NK cell survival or lytic activity” value (“effect of unesterified dipeptides” below) in data set [1] is “had no effect on NK cell survival or lytic activity”.
`COC(=O)[C@H](Cc1ccc(O)cc1)NC(=O)[C@@H](N)CC(C)C` [Leu-Tyr-OMe] (H-Leu-Tyr-OMe): the “competitive inhibition” value in data set [2] is “excellent competitive inhibitors of [^3 H]Leu-Leu-OMe uptake”. Moreover, the inhibition at 250 µM in data set [2] (setting [3]) is 86%. Moreover, in data set [1], the “NK Toxicity (LD50)” value was > 250 micro-M and the “NK toxicity / effect” value was “no observed NK inhibitory effects; also recorded: little or no toxicity for NK cells”.
As for `CC(C)C[C@H](N)C(=O)O` [Leucine, L-leucine, reference compound], in data set [1], the “NK toxicity / effect” value was “had no irreversible effect on NK function”.
Same read-out and setting: the value for `COC(=O)[C@H](CC(C)C)NC(=O)[C@@H](N)CCCCN` [Lys-Leu-OMe] (H-Lys-Leu-OMe) was “no observed NK inhibitory effects”.
Take `Cl.N` [NH4 Cl, reference compound]: in data set [1], the “prevention of Leu-OMe ablation of NK activity” value is recorded as “largely prevented” and the “permanent effect on NK function” value was “neither chloroquine, NH4 Cl, nor Ile-OMe had any substantial permanent effect on NK function”.
With `CC(C)C[C@H](NC(=O)[C@@H](N)Cc1ccccc1)C(=O)O` [Phe-Leu, L-phenylalanyl L-leucine, reference compound] (H-Phe-Leu-OH), the “effect of unesterified dipeptides” value in data set [1] was “had no effect on NK cell survival or lytic activity”.
With `COC(=O)[C@H](CC(C)C)NC(=O)[C@@H](N)Cc1ccccc1` [Phe-Leu-OMe] (H-Phe-Leu-OMe), the “NK toxicity / effect” value in data set [1] is “produced concentration-dependent ablation of NK function at concentrations comparable to those at which Leu-Leu-OMe was active”.
Still for that read-out and setting: the entry for `COC(=O)[C@@H](NC(=O)[C@@H](N)Cc1ccccc1)C(C)C` [Phe-Val-OMe] (H-Phe-Val-OMe) is “markedly less active than Val-Phe-OMe”.
In the case of `COC(=O)[C@H](CC(C)C)NC(=O)[C@@H]1CCCN1` [Pro-Leu-OMe] (H-Pro-Leu-OMe), in data set [2], the “competitive inhibition” value was “not competitively inhibited”. For the same compound, the inhibition at 250 µM in data set [2] (setting [3]) was -18%. Also, in data set [1], the “NK Toxicity (LD50)” value is listed as > 250 micro-M and the “NK toxicity / effect” value is “exhibit no NK toxicity”.
For `COC(=O)[C@H](CC(C)C)NC(=O)[C@@H](N)CO` [Ser-Leu-OMe] (H-Ser-Leu-OMe), in that order: “excellent competitive inhibitors of [^3 H]Leu-Leu-OMe uptake”, 94%, > 250 micro-M and “no observed NK inhibitory effects; also recorded: little or no toxicity for NK cells”.
Regarding `CC(C)C[C@H](NC(=O)[C@@H](N)C(C)C)C(=O)O` [Val-Leu, L-valyl L-leucine, reference compound] (H-Val-Leu-OH), the “effect of unesterified dipeptides” value in data set [1] is reported as “had no effect on NK cell survival or lytic activity”.
In the case of `COC(=O)[C@H](CC(C)C)NC(=O)[C@@H](N)C(C)C` [Val-Leu-OMe] (H-Val-Leu-OMe), the “NK toxicity / effect” value in data set [1] was “produced concentration-dependent ablation of NK function at concentrations comparable to those at which Leu-Leu-OMe was active”.
Regarding `CC(C)[C@H](N)C(=O)N[C@@H](Cc1ccccc1)C(=O)O` [Val-Phe, L-valyl L-phenylalanine, reference compound] (H-Val-Phe-OH), the “effect of unesterified dipeptides” value in data set [1] is “had no effect on NK cell survival or lytic activity”.
With `COC(=O)[C@H](Cc1ccccc1)NC(=O)[C@@H](N)C(C)C` [Val-Phe-OMe] (H-Val-Phe-OMe), the inhibition at 250 µM in data set [2] (setting [3]) worked out at 75%. Moreover, in data set [1], the “NK Toxicity (LD50)” value was found to be 24 micro-M and the “NK toxicity / effect” value is listed as “produced concentration-dependent ablation of NK function at concentrations comparable to those at which Leu-Leu-OMe was active; also recorded: among the most potent of the NK toxic dipeptide methyl esters”.
As to `COC(=O)[C@@H](NC(=O)[C@@H](N)C(C)C)C(C)C` [Val-Val-OMe] (H-Val-Val-OMe), the “NK toxicity / effect” value in data set [1] was “less active than either Leu-Val-OMe or Val-Leu-OMe”.
For the compound zinc [reference compound], the “effect on Leu-Leu-OMe mediated NK toxicity” value in data set [1] (added with Leu-Leu-OMe) is listed as “appeared to inhibit this Leu-Leu-OMe toxicity”.

For orientation: inhibition means the change of the read-out against control, counted positive when it falls.
